Article PMC10503797, “Allosteric modulator potentiates β2AR agonist–promoted bronchoprotection in asthma models” (The Journal of Clinical Investigation, 2023)
Several values for one entry are separate records, joined by “and”; a condition that tells them apart may be missing. Equal entries are not always repeated.

Legend:
C57BL/6J naive mice [1] = experiment: In vivo bronchodilation protocol, albuterol in methacholine-preconstricted airways (flexiVent); settings: Cmpd-6 10 mg/kg i.v.; methacholine […] + albuterol 1-30 μg/kg
Protocol: (§1) For the bronchoprotection protocol (A), bronchospasm was induced by i.v. administration of methacholine (25, 50, 100, 200, and 400 μg/kg). […] General Linear Model repeated measures ANOVA with Tukey’s posthoc test was used to determine the differences of airway responsiveness between DMSO- and Cmpd-6–treated conditions.
(§2) Airway hyperresponsiveness (AHR) was measured using the forced oscillation technique as described previously ([42]). […] For the bronchoprotection protocol, bronchospasm was induced by jugular vein i.v. administration of increasing doses of methacholine (25, 50, 100, 200, 400 μg/kg). […] Mice were ventilated with 100% oxygen at 150 breaths per minute, constant volume of 8 mL/kg and a 3 cm H2O positive end–expiratory pressure using a computer-controlled small animal ventilator (flexiVent, SCIREQ). The total lung impedance signal collected contained information about the resistance and elastance properties of the lung from which Newtonian resistance (Rn), a good indicator of the luminal diameter of the conducting airways, was calculated using the constant phase model. The heart rate data acquired using EKG electrodes was monitored to assess mouse viability and analgesia throughout the bronchoconstrictor protocols.

WT murine β2AR = WT murine β2AR (Mus musculus, UniProt P18762); experiment: 125I-CYP radioligand competition binding, WT murine β2AR; settings: WT Cmpd-6
Protocol: (§3) Statistical analyses were performed using 1-way ANOVA, repeated (related) measures with Tukey’s posthoc test.

murine V133F mutant β2AR = molecular target: T1, murine V133F mutant β2AR (Mus musculus, UniProt P18762, V133F); experiment: GloSensor cAMP, constitutive activity of overexpressed murine V133F mutant β2AR; type: cell-based; settings: Cmpd-6 at 5 μM, no orthosteric agonist
T1 construct: expressed in transfected cells; HEK293 GloSensor cells (cAMP assay)

C57BL/6J naive mice [2] = experiment: In vivo bronchoprotection protocol, methacholine-induced airway constriction (flexiVent); set-up: Newtonian resistance (Rn): unit not given here; settings: for Newtonian resistance (Rn): Cmpd-6 10 mg/kg i.v., 10 mg/kg
Protocol: as §1, §2

guinea pig β2AR = guinea pig β2AR (Cavia porcellus, UniProt Q8K4Z4); experiment: GloSensor cAMP, constitutive activity of overexpressed guinea pig β2AR
murine WT β2AR = molecular target: T2, murine WT β2AR (Mus musculus, UniProt P18762); experiment: GloSensor cAMP, constitutive activity of overexpressed murine WT β2AR; type: cell-based
T2 construct: expressed in transfected cells; HEK293 GloSensor cells (cAMP assay)

V133F mutant murine β2AR = V133F mutant murine β2AR (Mus musculus, UniProt P18762, V133F); experiment: 125I-CYP radioligand competition binding, V133F mutant murine β2AR; settings: V133F Cmpd-6
Sequence of V133F mutant murine β2AR (P18762 whole entry V133F): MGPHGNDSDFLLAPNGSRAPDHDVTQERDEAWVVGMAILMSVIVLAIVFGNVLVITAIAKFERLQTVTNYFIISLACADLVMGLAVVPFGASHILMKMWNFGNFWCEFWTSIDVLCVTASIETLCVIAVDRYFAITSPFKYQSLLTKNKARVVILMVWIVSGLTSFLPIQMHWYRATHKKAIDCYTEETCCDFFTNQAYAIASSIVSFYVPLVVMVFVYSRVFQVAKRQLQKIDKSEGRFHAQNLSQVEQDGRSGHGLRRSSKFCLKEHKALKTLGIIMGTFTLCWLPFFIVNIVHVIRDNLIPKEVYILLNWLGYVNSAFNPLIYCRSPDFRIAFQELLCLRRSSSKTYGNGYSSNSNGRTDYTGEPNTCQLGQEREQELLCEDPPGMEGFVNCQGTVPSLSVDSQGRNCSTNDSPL
Protocol: as §3

T2 sequence (P18762 whole entry): as the sequence (P18762 whole entry V133F) above, with F133V counted along it
Sequence of WT murine β2AR (P18762 whole entry): as the sequence (P18762 whole entry V133F) above, with F133V counted along it
Sequence of guinea pig β2AR (Q8K4Z4 whole entry): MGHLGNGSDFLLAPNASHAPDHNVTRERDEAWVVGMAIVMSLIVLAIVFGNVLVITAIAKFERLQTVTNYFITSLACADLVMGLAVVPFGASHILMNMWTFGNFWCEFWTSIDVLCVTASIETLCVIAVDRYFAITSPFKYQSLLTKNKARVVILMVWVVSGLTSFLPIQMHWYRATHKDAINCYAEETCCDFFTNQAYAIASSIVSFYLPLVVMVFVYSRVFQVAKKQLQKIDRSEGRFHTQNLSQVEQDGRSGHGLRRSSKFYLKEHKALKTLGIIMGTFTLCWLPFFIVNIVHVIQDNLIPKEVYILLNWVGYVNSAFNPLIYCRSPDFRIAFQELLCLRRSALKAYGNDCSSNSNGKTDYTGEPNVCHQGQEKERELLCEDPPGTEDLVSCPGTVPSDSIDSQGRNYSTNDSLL
T1 sequence (P18762 whole entry V133F): as the sequence (P18762 whole entry V133F) above

SMILES: COc1ccc(Sc2ccc(S(=O)(=O)N(C)C(C)C)cc2C(=O)N[C@H](CC(N)=O)Cc2ccc(C(C)(C)C)cc2)cc1 [Cmpd-6]
- Effect on albuterol-mediated bronchodilation (C57BL/6J naive mice [1]): no enhancing effect
- 125I-CYP binding (% of maximal) (WT murine β2AR; log[ISO] -4 M): 0.36% and 0.2162% and 0.04816% and -0.00042%
- 125I-CYP binding (% of maximal) (WT murine β2AR; log[ISO] -4.49485 M): 1.8839% and 1.834% and 1.807% and 2.135%
- 125I-CYP binding (% of maximal) (WT murine β2AR; log[ISO] -5.09691 M): 4.237% and 3.492% and 3.782% and 5.55%
- 125I-CYP binding (% of maximal) (WT murine β2AR; log[ISO] -5.69897 M): 11.5444% and 11.0871% and 11.3959% and 13.7676%
- 125I-CYP binding (% of maximal) (WT murine β2AR; log[ISO] -6.30103 M): 26.4647% and 27.054% and 29.2061% and 34.2195%
- 125I-CYP binding (% of maximal) (WT murine β2AR; log[ISO] -6.90309 M): 53.3668% and 53.0846% and 55.6007% and 58.7138%
- 125I-CYP binding (% of maximal) (WT murine β2AR; log[ISO] -7.50515 M): 77.7987% and 78.0629% and 80.5466% and 83.0218%
- 125I-CYP binding (% of maximal) (WT murine β2AR; log[ISO] -8.10721 M): 94.1342% and 94.186% and 93.5984% and 92.8613%
- 125I-CYP binding (% of maximal) (WT murine β2AR; log[ISO] -8.70927 M): 97.914% and 99.3549% and 97.9296% and 99.6433%
- 125I-CYP binding (% of maximal) (WT murine β2AR; log[ISO] -9.31133 M): 100.454% and 99.5549% and 102.315% and 101.138%
- 125I-CYP binding (% of maximal) (WT murine β2AR; log[ISO] -9.91339 M): 102.683% and 102.302% and 101.203% and 102.316%
- 125I-CYP binding (% of maximal) (WT murine β2AR; no ISO competitor): 100.129% and 100.082% and 100.868% and 101.552%
- cAMP level (% of ISO-stimulated maximal response) (murine V133F mutant β2AR): 45.8463% and 58.5082% and 46.5958% and 56.3694%
- Bronchoprotective effect against methacholine-induced airway resistance (C57BL/6J naive mice [2]; Cmpd-6 10 mg/kg i.v. 10 minutes before methacholine): no bronchoprotective effect
- Newtonian resistance (Rn) (C57BL/6J naive mice [2]; Mch 0 μg/kg): 0.362 and 0.310 and 0.287 and 0.300 and 0.311
- Newtonian resistance (Rn) (C57BL/6J naive mice [2]; Mch 25 μg/kg): 0.550 and 0.482 and 0.346 and 0.471 and 0.465
- Newtonian resistance (Rn) (C57BL/6J naive mice [2]; Mch 50 μg/kg): 0.728 and 0.671 and 0.387 and 0.670 and 0.609
- Newtonian resistance (Rn) (C57BL/6J naive mice [2]; Mch 100 μg/kg): 0.886 and 0.904 and 0.565 and 0.976 and 0.931
- Newtonian resistance (Rn) (C57BL/6J naive mice [2]; Mch 200 μg/kg): 1.570 and 1.261 and 0.919 and 1.518 and 1.725
- Newtonian resistance (Rn) (C57BL/6J naive mice [2]; Mch 400 μg/kg): 1.986 and 1.405 and 1.093 and 1.461 and 1.642
- cAMP, constitutive activity of overexpressed β2AR (Figure 4C) (guinea pig β2AR; Species of β2AR: Guinea pig): 48.9693 and 55.2023 and 45.6589 and 55.6328
- PAM activity in cAMP production induced by constitutive activity of overexpressed guinea pig β2AR (guinea pig β2AR; no orthosteric agonist, 20 minutes): equivalent to what we observed with the overexpressed human receptor
- cAMP level (% of ISO-stimulated maximal response) (murine WT β2AR; Cmpd-6 at 5 μM, no orthosteric agonist, Murine WT): 25.8782% and 38.8997% and 33.0059% and 37.3496%
- cAMP, constitutive activity of overexpressed β2AR (Figure 4C) (murine WT β2AR; Species of β2AR: Murine): 25.8782 and 38.8997 and 33.0059 and 37.3496
- 125I-CYP binding (% of maximal) (V133F mutant murine β2AR; log[ISO] -4 M): 0.3208% and 0.5206% and 0.2622% and 0.2602%
- 125I-CYP binding (% of maximal) (V133F mutant murine β2AR; log[ISO] -4.49485 M): 0.9301% and 1.21% and 0.9752% and 0.9507%
- 125I-CYP binding (% of maximal) (V133F mutant murine β2AR; log[ISO] -5.09691 M): 1.3005% and 2.025% and 1.333% and 1.6451%
- 125I-CYP binding (% of maximal) (V133F mutant murine β2AR; log[ISO] -5.69897 M): 2.898% and 2.7378% and 2.508% and 2.41%
- 125I-CYP binding (% of maximal) (V133F mutant murine β2AR; log[ISO] -6.30103 M): 7.927% and 6.9353% and 6.15% and 6.231%
- 125I-CYP binding (% of maximal) (V133F mutant murine β2AR; log[ISO] -6.90309 M): 15.2419% and 14.4367% and 12.7613% and 13.8675%
- 125I-CYP binding (% of maximal) (V133F mutant murine β2AR; log[ISO] -7.50515 M): 33.0019% and 29.7875% and 27.3642% and 30.2603%
- 125I-CYP binding (% of maximal) (V133F mutant murine β2AR; log[ISO] -8.10721 M): 56.9542% and 53.726% and 49.4673% and 52.7312%
- 125I-CYP binding (% of maximal) (V133F mutant murine β2AR; log[ISO] -8.70927 M): 79.9915% and 78.4975% and 76.4167% and 78.5935%
- 125I-CYP binding (% of maximal) (V133F mutant murine β2AR; log[ISO] -9.31133 M): 94.8693% and 96.2982% and 94.9618% and 94.6481%
- 125I-CYP binding (% of maximal) (V133F mutant murine β2AR; log[ISO] -9.91339 M): 100.835% and 99.7406% and 98.19% and 100.221%
- 125I-CYP binding (% of maximal) (V133F mutant murine β2AR; no ISO competitor): 103.118% and 101.321% and 102.31% and 102.083%
